{"source": "patent US7371779B2", "about": "“Synergistic compositions of N-acylhomoserine lactones and 4-quinolones” (The Secretary of State for Defense Science and Technology, priority 2001, dated 2008)", "key": {"TNF-alpha": {"tested_on": "TNF-alpha", "experiment": "TNF-alpha production from LPS-stimulated human PBMC (sandwich ELISA)", "format": "cell-based", "conditions": "Experiment III; read-out: IC50 in inhibition of LPS induced production of TNF-α by human PBMC", "method": "Bacterial lipopolysaccharide (LPS) stimulates the production of a variety of cytokines, including TNF-alpha, from human PBMC; these cytokines in turn influence the development of T cells, supporting a T helper 1 conducive milieu. Human PBMC prepared from whole blood by buoyant density centrifugation were resuspended in CTCM. […] Following incubation for 24 h at 37° C. in 5% CO2-air, the cell culture supernatants were collected and tested for TNF-alpha levels by ‘sandwich’ ELISA. Briefly, 96-well Nunc MaxiSorp (Life Technologies, Paisley, UK) plates were coated with 50 μl of a 2 μg/ml solution of mouse anti-human TNF-alpha monoclonal antibody (Pharmingen, UK) in 0.05 M carbonate/bicarbonate buffer, pH 9.6 overnight at 4° C. After washing the plates three times with PBS-Tween, which contained phosphate buffered saline (PBS) with 0.5% (vol/vol) Tween 20 (Sigma, Poole, UK), the plates were blocked with 1% (wt/vol) bovine serum albumin (BSA) (Sigma, Poole, UK) at room temperature for 2 h. Following three washes with PBS-Tween, 50 μl of cell culture supernatants were added and incubated overnight at 4° C.; standard human TNF-alpha (Pharmingen, UK) ranging from 2000 to 31.25 pg/ml were included for each plate. After four washes with PBS-Tween, 50 μl of a second antibody, biotinylated mouse anti-human TNF-alpha monoclonal antibody (Pharmingen, UK) was added at 0.5 μg/1 ml diluted in 1% BSA in PBS-Tween and incubated at room temperature for 1 h. Following four washes, the bound biotinylated antibody was detected with 50 μl of a 1:1,000 dilution of Streptavidin-peroxidase (Pharmingen, UK). At the end of an hour incubation at room temperature, the plates were thoroughly washed six times with PBS-Tween and the assay was developed by the addition of 100 μl of 0.1 mg/ml of tetramethyl benzidine subtrate (Sigma, Poole, UK) in 0.1 M sodium acetate buffer, pH 6 containing 0.03% H2O2. The enzyme reaction was stopped with 50 μl of 2.5 M H2SO4 after an incubation of 10 minutes at room temperature and the development was read at 450 nm with a spectrophotometric 96-well plate reader (Dynex)."}, "human PBMC": {"tested_on": "human PBMC", "experiment": "ConA mitogen-stimulated proliferation of human PBMC ([3H]-thymidine incorporation)", "format": "cell-based", "conditions": "Experiment II, read-out: IC50 in inhibition of ConA induced cell proliferation of PBMC", "method": "Blood specimens were obtained with consent from healthy human volunteers. Human peripheral blood mononuclear cells (PBMC) were isolated from heparinised whole blood by buoyant density centrifugation over Histopaque 1077 (Sigma, Poole, UK) at 600 g for 20 minutes. PBMC harvested from the ‘buffy’ layers were washed twice with RPMI 1640 medium and resuspended in CTCM. […] Human PBMC were incubated for 48 h at 37° C. in 5% CO2-air, followed by pulsing with 0.25 μCi [^3H]-thymidine (see above). After a further incubation of 24 h cells were harvested onto fibreglass filters and then counted in the presence of MicroScint-O with the Packard TopCount.\nConcanavalin induced cell proliferation of human peripheral blood mononuclear cells (PBMC) was tracked, as described in I above, by a measurement of counts per minute using the scintillation counter. The inhibitory effect of an HSL compound being tested on cell proliferation was indicated by a reduction in counts per minute. […] Columns B, C and D represent different sources of human PBMC samples used.\nPlots of counts per minute (cpm) against the concentration of the quorum sensing molecules and the vehicle are shown in FIG. 11."}, "murine splenocytes": {"tested_on": "murine splenocytes", "experiment": "ConA mitogen-stimulated proliferation of murine splenocytes ([3H]-thymidine incorporation)", "format": "cell-based, mouse (BALB/c)", "conditions": "ConA 1 μg/ml, 100,000 spleen cells, Experiment I; read-out: IC50 in inhibition of ConA induced murine splenocyte proliferation", "method": "(§1) Proliferation was assessed by the incorporation of [^3H]-thymidine into DNA. Eight-week-old female BALB/c mice were obtained from Harlan (Bicester, Oxon, UK) and given food and water ad libitum. Splenocyte suspensions were prepared by removing the spleens and placing them into RPMI 1640 medium. The spleens were forced through 70-μm-pore-size wire gauzes using the plunger from a 5-ml syringe to produce a single cell suspension. The cells were pelleted by centrifugation, and erythrocytes were lysed with 0.017 M Tris, 0.144 M ammonium chloride buffer, pH 7.2. Leucocytes were washed twice with RPMI 1640 medium with 2% (vol/vol) foetal calf serum (FCS) and resuspended in complete cell culture medium (CTCM) consisting of RPMI 1640 medium with 5% FCS, 2 mM L-glutamine, and 5×10^−5 M 2-mercaptoethanol. HSL compounds were tested at doubling down dilutions ranging from 1 mM to 0.1 μM in a final volume of 200 μl of CTCM, containing ConA (Sigma, Poole, UK) at 1 μg/ml and 100,000 spleen cells. Following incubation for 48 h at 37° C. in 5% CO2-air, 0.25 μCi [^3H]-thymidine (Amersham) in 10 μl volume made up in RPMI 1640 medium was added and the cells were incubated for a further 24 h. Cells were harvested onto fibreglass filters with a Packard filtermate harvester. After the addition of 25 μl of MicroScint-O (Packard) to each well the filters were counted with the Packard TopCount scintillation counter.\n(§2) Mitogen (Concanavalin A) induced murine splenocyte proliferation was indicated by the incorporation of tritated thymidine into the DNA in the mouse spleen cells as shown by counts per minute using the scintillation counter. The inhibitory effect of an HSL compound being tested on cell proliferation was indicated by a reduction in counts per minute.\nas §1, with “70 μm pore size” for “70-μm-pore-size”, “5 ml” for “5-ml”, “The title compound was” for “HSL compounds were”, “dilutions” for “dilutions ranging from 1 mM to 0.1 μM in a final volume of 200 μl of CTCM,”, “g/ml” for “μg/ml”, “COrair,” for “CO2-air,”\nas §2, with “the title” for “an HSL”"}}, "note": "Like-named read-outs stand apart in the source and are kept apart here."}
{"molecule": "O=C(CCCCCCCCCBr)CC(=O)N[C@H]1CCOC1=O", "note": "[Example 7, N-(12-Bromo-3-oxododecanoyl)-L-homoserine lactone]", "values": [{"measurement": "IC50", "setting": "TNF-alpha", "result": 63, "unit": "µM"}, {"measurement": "IC50", "setting": "human PBMC; human PBMC source B", "result": 20, "unit": "µM"}, {"measurement": "IC50", "setting": "human PBMC; human PBMC source D", "result": 7, "unit": "µM"}, {"measurement": "IC50", "setting": "murine splenocytes", "result": 6, "unit": "µM"}]}
